The results in this text go back to patent US8609674B2, “Potassium channel modulators” (AbbVie Inc., priority 2010, dated 2013).

Some results are limits rather than exact numbers.

What all share (type): cell-based
One assay deals with T1, human KCNQ4 (Homo sapiens, UniProt P56696).
T1 construct: expressed in transfected cells; host or cells: HEK293
Description: KCNQ4 thallium influx FLIPR TETRA assay. The conditions noted are these: for EC50: HEK293 cells stably expressing human KCNQ4, Tl+ influx; for Emax: maximum response relative to 10 μM retigabine (=100%), read-out: KCNQ4 Max. %. The protocol:
(§1) The following example describes the assay that may be used to identify compounds that activate KCNQ4 or KCNQ5 channels.
(§2) The assays were performed using a FLIPR^TETRA (Molecular Devices, Sunnyvale, Calif.) in 384-well format. HEK293 cells stably expressing human KCNQ4 or KCNQ5 were seeded in 384-well, black-walled, clear-bottomed, poly-D-lysine coated plates (Greiner Bio-One, Germany) at a density of 1.5×10^4 cells per well, 24 hours before the assay. On the assay day, BTC-AM dye was loaded into the cells by replacing the cell culture medium with 30 μL/well of 2.8 μM dye in DPBS. Dye loading was allowed to proceed for 2 hours at room temperature and then cells were washed once in 30 μL/well of assay buffer (in mM: 10 HEPES pH 7.3, 5 glucose, 140 Na-gluconate, 2.5 K-gluconate, 3.6 Ca-gluconate, 2 MgSO4, 0.1 Ouabain) to remove unloaded dye. Cells were incubated in 30 μL of assay buffer before loading onto a FLIPR^TETRA system. Compounds to be assayed were added to the cells as 4× of final concentration in 15 μL of assay buffer and incubated for 4 minutes at room temperature. The influx signal was initiated by adding 15 μL of assay buffer containing 4.2 mM TlNO3 and 7 mM K2SO4. Tl^+ influx signals were recorded for 3 minutes. Tl^+ influx signal was quantified as light unit changes after Tl^+ addition using the “SUM” statistic from the FLIPR^TETRA software. Sums of the responses over basal responses were plotted versus concentrations of test compounds to obtain an EC50 value and the points fit with a nonlinear regression curve using GraphPad Prism software (GraphPad Software Inc., San Diego, Calif.). EC50 values were calculated from the resulting sigmoidal dose-response curves. The maximum response for each test compound was determined relative to the response produced by 10 μM retigabine. The maximum response of retigabine at 10 μM was set at 100%.

The target of assay [1] is T2, human KCNQ2 and KCNQ3 subunits (KCNQ2/3 channels) (Homo sapiens, UniProt O43525+O43526).
T2 construct: expressed in transfected cells; host or cells: HEK293
The experiment in a line: KCNQ2/3 thallium influx FLIPR assay (BTC-AM dye). The conditions noted are these: for EC50: HEK293 cells stably expressing human KCNQ2 and KCNQ3, Tl+ influx; for Emax: maximum response relative to 10 μM retigabine (=100%), read-out: KCNQ2/3 Max. %. On the procedure:
The following example describes the assay that may be used to identify compounds that activate KCNQ2/3 channels.
HEK293 cells stably expressing human KCNQ2 and KCNQ3 subunits were seeded in 96-well, black-walled, clear-bottomed, poly-D-lysine coated plates (BD Biosciences, Bedford, Mass.) at a density of 1×10^5 cells per well 24 hours before the assay. On the assay day, BTC-AM dye (Invitrogen, Carlsbad, Calif.) was loaded into the cells by replacing the cell culture medium with 55 μL/well of 3 μg/ml dye in Dulbecco's Phosphate Buffered Saline (DPBS) (Invitrogen). Dye loading was allowed to proceed for 2 hours at room temperature and then cells were washed twice with 50 μL/well of assay buffer (in mM: 10 HEPES pH 7.3, 5 glucose, 140 Na-gluconate, 2.5 K-gluconate, 3.6 Ca-gluconate, 2 MgSO4, 0.1 Ouabain) to remove unloaded dye. Cells were incubated in 50 μL of assay buffer before loading onto a FLIPR system (Molecular Devices, Sunnyvale, Calif.). Various concentrations of compounds to be assayed were added to the cells in 50 μL of assay buffer and incubated for 4 minutes. The fluorescence signal was initiated by adding 100 μL of assay buffer containing 6 mM TlNO3 and 10 mM K2SO4. Fluors were excited using the 488-nm line of an argon laser and emission was filtered using a 540±30 nm bandpass filter. Fluorescent signals were recorded for 3 minutes. Sums of the responses over basal responses were plotted versus concentrations of test compounds to obtain an EC50 value and the points fit with a nonlinear regression curve using GraphPad Prism software (GraphPad Software Inc., San Diego, Calif.). EC50 values were calculated from the resulting sigmoidal dose-response curves. The maximum response for each test compound was determined relative to the response produced by 10 μM retigabine. The maximum response of retigabine at 10 μM was set at 100%.

For the next assay, the target named is T3, human KCNQ5 (Homo sapiens, UniProt Q9NR82).
T3 construct: expressed in transfected cells; host or cells: HEK293
Description: KCNQ5 thallium influx FLIPR TETRA assay. The settings on record: for EC50: HEK293 cells stably expressing human KCNQ5, Tl+ influx; for Emax: maximum response relative to 10 μM retigabine (=100%), read-out: KCNQ5 Max. %. On the procedure: as §1, §2

Turning to `CC(C)c1nc2ccccc2c(=O)n1NC(=O)CC1CC2CC1C2` (racemic) [Example 22, (±)-2-(bicyclo[2.1.1]hex-2-yl)-N-[4-oxo-2-(propan-2-yl)quinazolin-3(4H)-yl]acetamide], the EC50 is 1 to 10 µM on human KCNQ4, less than 100 nM in assay [1] and 1 to 10 µM at human KCNQ5. Moreover, the Emax amounted to 255% on human KCNQ4, 179% in assay [1] and 857% at human KCNQ5.

In the case of `CC1(C)[C@H]2CC[C@@H](CC(=O)Nn3c(C4CC4)nc4cc(F)ccc4c3=O)[C@@H]1C2` [Example 3, N-(2-cyclopropyl-7-fluoro-4-oxoquinazolin-3(4H)-yl)-2-[(1S,2S,5S)-6,6-dimethylbicyclo[3.1.1]hept-2-yl]acetamide], the EC50 at human KCNQ4 was greater than 30 µM; in assay [1], less than 100 nM; at human KCNQ5 it was greater than 30 µM. The Emax is -2% at human KCNQ4, 99% in assay [1] and 36% on human KCNQ5.

As to `CC1(C)[C@H]2CC[C@@H](CC(=O)Nn3c(C4CC4)nc4cc(C(F)(F)F)ccc4c3=O)[C@@H]1C2` [Example 4, N-[2-cyclopropyl-4-oxo-7-(trifluoromethyl)quinazolin-3(4H)-yl]-2-[(1S,2S,5S)-6,6-dimethylbicyclo[3.1.1]hept-2-yl]acetamide], the EC50 at human KCNQ4 was greater than 30 µM; in assay [1] it was greater than 30000 nM; at human KCNQ5 it was greater than 30 µM. Also, the results for the Emax (on human KCNQ4; in assay [1]; at human KCNQ5) were 1%, 3% and 12%, respectively.

On to `CCc1nc2sccc2c(=O)n1NC(=O)C[C@@H]1CC[C@H]2C[C@@H]1C2(C)C` [Example 6, 2-[(1S,2S,5S)-6,6-dimethylbicyclo[3.1.1]hept-2-yl]-N-(2-ethyl-4-oxothieno[2,3-d]pyrimidin-3(4H)-yl)acetamide], for which the EC50 is greater than 30 µM at human KCNQ4, 1000 to 10000 nM in assay [1] and greater than 30 µM at human KCNQ5. Moreover, the Emax on human KCNQ4 was determined as 5%; in assay [1] it was 99%; at human KCNQ5, 9%.

`CC1(C)[C@H]2CC[C@@H](CC(=O)Nn3c(C(F)(F)F)nc4ccccc4c3=O)[C@@H]1C2` [Example 7, 2-[(1S,2S,5S)-6,6-dimethylbicyclo[3.1.1]hept-2-yl]-N-[4-oxo-2-(trifluoromethyl)quinazolin-3(4H)-yl]acetamide]: the EC50 on human KCNQ4 was greater than 30 µM; in assay [1], 100 to 500 nM; at human KCNQ5, greater than 30 µM. For the same molecule, the values for the Emax (on human KCNQ4; in assay [1]; at human KCNQ5) were 6%, 58% and 52%, respectively.

Take `CC(C)c1nc2ccccc2c(=O)n1NC(=O)COC[C@@H]1CC[C@H]2C[C@@H]1C2(C)C` [Example 8, 2-[(1S,2R,5S)-(6,6-dimethylbicyclo[3.1.1]hept-2-yl)methoxy]-N-[4-oxo-2-(propan-2-yl)quinazolin-3(4H)-yl]acetamide]: the values for the EC50 (on human KCNQ4; in assay [1]; at human KCNQ5) were greater than 30 µM, 500 to 1000 nM and greater than 30 µM, respectively. For the same molecule, the Emax on human KCNQ4 is 57%; in assay [1], 132%; on human KCNQ5, 52%.

For `CC(SC[C@@H]1CC[C@H]2C[C@@H]1C2(C)C)C(=O)Nn1c(C(C)C)nc2ccccc2c1=O` (stereo partly drawn) [Example 9, 2-({[(1S,2R,5S)-6,6-dimethylbicyclo[3.1.1]hept-2-yl]methyl}sulfanyl)-N-[4-oxo-2-(propan-2-yl)quinazolin-3(4H)-yl]propanamide], the EC50 at human KCNQ4 is greater than 30 µM; in assay [1], 100 to 500 nM; on human KCNQ5, greater than 30 µM. The Emax at human KCNQ4 worked out at 23%; in assay [1], 49%; on human KCNQ5 it was 49%.

As for `CC(C)c1nc2ccccc2c(=O)n1NC(=O)COCC[C@@H]1CC[C@H]2C[C@@H]1C2(C)C` [Example 10, 2-{2-[(1S,2S,5S)-6,6-dimethylbicyclo[3.1.1]hept-2-yl]ethoxy}-N-[4-oxo-2-(propan-2-yl)quinazolin-3(4H)-yl]acetamide], the EC50 on human KCNQ4 is greater than 30 µM; in assay [1], 1000 to 10000 nM; at human KCNQ5, greater than 30 µM. Moreover, the Emax at human KCNQ4 amounted to 122%; in assay [1], 121%; at human KCNQ5 it was 335%.

As for `CC(C)c1nc2ccccc2c(=O)n1NC(=O)CCSC[C@@H]1CC[C@H]2C[C@@H]1C2(C)C` [Example 11, 3-({[(1S,2R,5S)-6,6-dimethylbicyclo[3.1.1]hept-2-yl]methyl}sulfanyl)-N-[4-oxo-2-(propan-2-yl)quinazolin-3(4H)-yl]propanamide], the results for the EC50 (on human KCNQ4; in assay [1]; on human KCNQ5) were 1 to 10 µM, 100 to 500 nM and greater than 30 µM, respectively. The results for the Emax (at human KCNQ4; in assay [1]; on human KCNQ5) were 293%, 123% and 714%, respectively.

On to `CC(C)c1nc2ccccc2c(=O)n1NC(=O)CSC[C@@H]1CC[C@H]2C[C@@H]1C2(C)C` [Example 12, 2-({[(1S,2R,5S)-6,6-dimethylbicyclo[3.1.1]hept-2-yl]methyl}sulfanyl)-N-[4-oxo-2-(propan-2-yl)quinazolin-3(4H)-yl]acetamide], for which the EC50 on human KCNQ4 is greater than 30 µM; in assay [1] it was 100 to 500 nM; on human KCNQ5 it was greater than 30 µM. Further, the Emax at human KCNQ4 was 41%; in assay [1], 149%; at human KCNQ5, 136%.

As to `CC(C)c1nc2ccc(F)cc2c(=O)n1NC(=O)C[C@@H]1CC[C@H]2C[C@@H]1C2(C)C` [Example 13, 2-[(1S,2S,5S)-6,6-dimethylbicyclo[3.1.1]hept-2-yl]-N-[6-fluoro-4-oxo-2-(propan-2-yl)quinazolin-3(4H)-yl]acetamide], the EC50 at human KCNQ4 is greater than 30 µM; in assay [1] it was less than 100 nM; on human KCNQ5 it was greater than 30 µM. For the same molecule, the Emax came out at 8% on human KCNQ4, 73% in assay [1] and 21% at human KCNQ5.

As for `CC1(C)[C@H]2CC[C@@H](CC(=O)Nn3c(CC(F)(F)F)nc4ccccc4c3=O)[C@@H]1C2` [Example 14, 2-[(1S,2S,5S)-6,6-dimethylbicyclo[3.1.1]hept-2-yl]-N-[4-oxo-2-(2,2,2-trifluoroethyl)quinazolin-3(4H)-yl]acetamide], the EC50 was greater than 30 µM at human KCNQ4, less than 100 nM in assay [1] and greater than 30 µM at human KCNQ5. For the same molecule, the results for the Emax (at human KCNQ4; in assay [1]; at human KCNQ5) were 27%, 105% and -10%, respectively.

For `CC1(C)[C@H]2CC[C@@H](CC(=O)Nn3cnc4ccccc4c3=O)[C@@H]1C2` [Example 16, 2-[(1S,2S,5S)-6,6-dimethylbicyclo[3.1.1]hept-2-yl]-N-(4-oxoquinazolin-3(4H)-yl)acetamide], the EC50 at human KCNQ4 was greater than 30 µM; in assay [1] it was 1000 to 10000 nM; on human KCNQ5, greater than 30 µM. Besides, the Emax on human KCNQ4 was 6%; in assay [1] it was 144%; at human KCNQ5, 13%.

Take `Cc1nc2ccccc2c(=O)n1NC(=O)C[C@@H]1CC[C@H]2C[C@@H]1C2(C)C` [Example 17, 2-[(1S,2S,5S)-6,6-dimethylbicyclo[3.1.1]hept-2-yl]-N-(2-methyl-4-oxoquinazolin-3(4H)-yl)acetamide]: the EC50 on human KCNQ4 was greater than 30 µM; in assay [1], 1000 to 10000 nM; at human KCNQ5, greater than 30 µM. Further, the Emax on human KCNQ4 turned out to be 3%; in assay [1] it was 97%; on human KCNQ5, 14%.

By EC50 is commonly meant the concentration at which the effect is half-maximal. A low value points to a more potent agent.
